From patent US20220053758A1, “Microcapsule With Acetamides And Diflufenican” (Monsanto Technology LLC, priority 2020, published 2022)

Key:
proso millet (PANMI) = assay: Greenhouse pre-emergent efficacy, Example 3B; assay type: in vivo, Panicum miliaceum; settings: both rates tested (½× and 1×)
Source text: (§1) ACC, DFF and MRB were used as the commercial products Warrant®, Brodal® and TriCor® DF as described in Example 3A above. Further, also a DFF+MRB pre-mix (200 g/L DFF+400 g/L MRB, suspension concentrate) was used. For GR (glyphosate resistant) palmer amaranth (AMAPA), at 1× rate, all 2- and 3-way treatments provided >95% control. Except for the DFF+MRB pre-mix, these treatments also provided >95% control of GR AMAPA at ½× rate as well. No single active ingredient provided acceptable control of GR AMAPA in this trial.

[1] = tested on: GR (glyphosate resistant) palmer amaranth (AMAPA); assay: Greenhouse pre-emergent efficacy, Example 3B; assay type: in vivo, Amaranthus palmeri; settings: rates tested (½× and 1×)
Source text: as §1

[2] = tested on: glyphosate resistant Canola (Roundup Ready® Canola); assay: Greenhouse post-emergent efficacy in glyphosate resistant Canola, Example 3C; assay type: in vivo; settings: visual rating 14 DAT
Experimental: ACC and DFF were used as the commercial products Warrant® and Brodal® as described in Example 3A above. The seeds of glyphosate resistant Canola (Roundup Ready® Canola) were planted in 3.5-inches (8.89 cm) square plastic pots filled with a potting media of 75% silt loam and 25% Redi-earth (Sun Gro, Bellevue, Wash.). The temperature conditions were 22° C. day and 17° C. night with 14 hours of supplemental light (approximately 600 microeinsteins). The pots are placed in a controlled-environment greenhouse equipped with sub-irrigation. The treatments applications were applied to the plants with a track sprayer generally using a TTI110015 nozzle spray nozzle. The spray nozzle was 16 inches (40.64 cm) above the top of the plants and a spray volume rate of about 140 L/ha was applied. The plants were sprayed when canola was at the V3-V4 growth stage. Visual ratings (% control) were collected at 14 DAT.

[3] = 25° C.; cited from earlier work
[4] = tested on: AMAPA (WR-2015-002), resistant against glyphosate, PPO-, HPPD- and ALS-inhibitor herbicides; assay: Greenhouse pre-emergent efficacy on multiple resistant AMAPA, Example 3D; assay type: in vivo, Amaranthus palmeri; settings: 21 DAT
Experimental: (§2) Premixes of present disclosure were compared with ACC and DFF used as the commercial products Warrant® and Brodal® as described in Example 3A above, as well as a corresponding tank-mix of ACC+DFF. Two different pre-mix formulations according to the present disclosure were evaluated for pre-emergent efficacy on the following difficult to control multiple resistant palmer amaranth (Amaranthus palmeri, AMAPA) species: AMAPA (WR-2015-002), resistant against glyphosate, PPO-, HPPD- and ALS-inhibitor herbicides; and AMAPA (WR-2015-008), resistant against glyphosate and metribuzin (PSII-inhibitor), PPO-, HPPD- and ALS-inhibitor herbicides.
(§3) At 21 DAT (days after treatment), visual percent control as well as fresh biomass ratings were recorded for all replications. […] Percent control was then calculated based on the respective untreated control plants.

[5] = tested on: AMAPA (WR-2015-008), resistant against glyphosate and metribuzin (PSII-inhibitor), PPO-, HPPD- and ALS-inhibitor herbicides; assay: as above; assay type: in vivo, Amaranthus palmeri; settings: 21 DAT
Experimental: as §2, §3

[6] = group line over the three rates (1×, ½×, ¼×)

SMILES | control of proso millet (PANMI), in words (proso millet (PANMI)) | control of GR AMAPA, in words [1] | Canola Crop Injury Average [2, 6] [%] | Canola Crop Injury Average ([2]; ¼× (ACC 315, DFF 38 g ai/ha)) [%] | Canola Crop Injury Average ([2]; ½× (ACC 630, DFF 75 g ai/ha)) [%] | water solubility [3] | Injury Average AMAPA (WR-2015-002) ([4]; 1× (ACC 1260, DFF 150 g ai/ha)) [%] | Injury Average AMAPA (WR-2015-002) ([4]; ½× (ACC 630, DFF 75 g ai/ha)) [%] | Injury Average AMAPA (WR-2015-008) ([5]; 1× (ACC 1260, DFF 150 g ai/ha)) [%] | Injury Average AMAPA (WR-2015-008) ([5]; ½× (ACC 630, DFF 75 g ai/ha)) [%]
O=C(Nc1ccc(F)cc1F)c1cccnc1Oc1cccc(C(F)(F)F)c1 [DFF, N-(2,4-difluorophenyl)-2-[3-(trifluoromethyl)phenoxy]-3-pyridinecarboxamide] | weak control | weak control | 18.3 | 3.1 | 13.8 | about 50 μg/L | 70.6 | 51.3 | 75.6 | 65.6
CCOCN(C(=O)CCl)c1c(C)cccc1CC [ACC, 2-chloro-N-(ethoxymethyl)-N-(2-ethyl-6-methylphenyl)acetamide] | weak control | weak control | 6.7 | 0.0 | 2.5 | – | 81.6 | 61.9 | 73.8 | 60.6
